Reference: ChEMBL document CHEMBL4706752 (ACS Med Chem Lett, 2021)

Key:
[1] = Oral bioavailability in dog at 2 mg/kg; assay type: ADME, organism-based, Canis lupus familiaris; conditions: in vivo
[2] = Cmax in Sprague-Dawley rat at 4 mg/kg, po; assay type: ADME, organism-based; parameters: route oral, dose 4 mg/kg; conditions: in vivo
[3] = AUC in Balb/c mouse at 2 mg/kg, iv; assay type: ADME, organism-based; parameters: dose 2 mg/kg; conditions: in vivo
[4] = Tmax in dog at 2 mg/kg, po; assay type: ADME, organism-based, Canis lupus familiaris; conditions: in vivo
[5] = tested on: Mus musculus; experiment: Antiinflammatory activity in DBA/1J mouse model of collagen-induced arthritis assessed as reduction in plasma IL-6 level at 20 mg/kg, po dosed twice daily for 21 days (reference value: 80 +/- 6 pg/ml); assay type: functional; conditions: time 21 day
[6] = tested on: Mus musculus; experiment: Antiinflammatory activity in DBA/1J mouse model of collagen-induced arthritis assessed as reduction in histological score at 10 mg/kg, po dosed twice daily for 21 days; assay type: functional; conditions: 504 h, time 21 day
[7] = tested on: Mus musculus; experiment: Suppression of ear thickness in C57BL/6 mouse model of IL-23 induced acanthosis model of psoriasis assessed as AUC of %change in ear thickness at 5 mg/kg, po BID for 10 days measured every other day; assay type: functional; conditions: time 10 day
[8] = Oral bioavailability in Sprague-Dawley rat at 4 mg/kg; assay type: ADME, organism-based; conditions: in vivo
[9] = Decrease in LCN2 gene expression in C57BL/6 mouse model of IL-23 induced acanthosis model of psoriasis at 10 mg/kg, po BID for 10 days by RT-PCR analysis; assay type: functional; conditions: C57BL/6, po, 240 h, time 10 day
[10] = Decrease in LCN2 gene expression in C57BL/6 mouse model of IL-23 induced acanthosis model of psoriasis at 20 mg/kg, po BID for 10 days by RT-PCR analysis; assay type: functional; conditions: C57BL/6, po, 240 h, time 10 day
[11] = Apparent permeability across apical to basolateral membrane in human Caco2 cells; assay type: ADME, cell-based; conditions: Caco-2
[12] = Decrease in IL-6 gene expression in C57BL/6 mouse model of IL-23 induced acanthosis model of psoriasis at 10 mg/kg, po BID for 10 days by RT-PCR analysis; assay type: functional; conditions: C57BL/6, po, 240 h, time 10 day
[13] = Decrease in LCN2 gene expression in C57BL/6 mouse model of IL-23 induced acanthosis model of psoriasis at 5 mg/kg, po BID for 10 days by RT-PCR analysis; assay type: functional; conditions: C57BL/6, po, 240 h, time 10 day
[14] = tested on: Mus musculus; experiment: Antiinflammatory activity in DBA/1J mouse model of collagen-induced arthritis assessed as reduction in clinical score at 10 mg/kg, po dosed twice daily for 21 days measured on day 51; assay type: functional; conditions: 504 h, time 21 day
[15] = Tmax in Sprague-Dawley rat at 4 mg/kg, po; assay type: ADME, organism-based; conditions: in vivo
[16] = Decrease in IL-17a gene expression in C57BL/6 mouse model of IL-23 induced acanthosis model of psoriasis at 10 mg/kg, po BID for 10 days by RT-PCR analysis; assay type: functional; conditions: C57BL/6, po, 240 h, time 10 day
[17] = Half life in cynomolgus monkey at 1 mg/kg, iv; assay type: ADME, organism-based, Macaca fascicularis; conditions: in vivo
[18] = biological target: Cytochrome P450 3A4 (Homo sapiens, UniProt P08684); experiment: Inhibition of CYP3A4 (unknown origin); assay type: ADME
[19] = AUC in cynomolgus monkey at 2 mg/kg, po; assay type: ADME, organism-based, Macaca fascicularis; parameters: dose 2 mg/kg; conditions: in vivo
[20] = Protein binding in mouse serum assessed as fraction unbound; assay type: ADME, cell-free; conditions: read-out: PB
[21] = Unbound volume of distribution at steady state in Balb/c mouse at 2 mg/kg, iv; assay type: ADME, organism-based; conditions: in vivo
[22] = AUC in Balb/c mouse at 4 mg/kg, po; assay type: ADME, organism-based; parameters: dose 4 mg/kg; conditions: in vivo
[23] = Decrease in IL-17a gene expression in C57BL/6 mouse model of IL-23 induced acanthosis model of psoriasis at 20 mg/kg, po BID for 10 days by RT-PCR analysis; assay type: functional; conditions: C57BL/6, po, 240 h, time 10 day
[24] = Cmax in Balb/c mouse at 4 mg/kg, po; assay type: ADME, organism-based; parameters: route oral, dose 4 mg/kg; conditions: in vivo
[25] = Unbound volume of distribution at steady state in cynomolgus monkey at 1 mg/kg, iv; assay type: ADME, organism-based, Macaca fascicularis; conditions: in vivo
[26] = Clearance in cynomolgus monkey at 1 mg/kg, iv; assay type: ADME, organism-based, Macaca fascicularis; conditions: in vivo
[27] = Cmax in cynomolgus monkey at 2 mg/kg, po; assay type: ADME, organism-based, Macaca fascicularis; parameters: route oral, dose 2 mg/kg; conditions: in vivo
[28] = Unbound volume of distribution at steady state in Sprague-Dawley rat at 2 mg/kg, iv; assay type: ADME, organism-based; conditions: in vivo
[29] = tested on: Mus musculus; experiment: Antiinflammatory activity in DBA/1J mouse model of collagen-induced arthritis assessed as reduction in arthritic score at 5 to 20 mg/kg, po dosed twice daily for 21 days; assay type: functional, organism-based; conditions: dose 5-20 mg/kg, time 21.0 day
[30] = AUC in dog at 2 mg/kg, po; assay type: ADME, organism-based, Canis lupus familiaris; parameters: dose 2 mg/kg; conditions: in vivo
[31] = biological target: T1, Nuclear receptor ROR-alpha (Homo sapiens, UniProt P35398); experiment: Inhibition of RORalpha (unknown origin)
T1 sequence (P35398 whole entry): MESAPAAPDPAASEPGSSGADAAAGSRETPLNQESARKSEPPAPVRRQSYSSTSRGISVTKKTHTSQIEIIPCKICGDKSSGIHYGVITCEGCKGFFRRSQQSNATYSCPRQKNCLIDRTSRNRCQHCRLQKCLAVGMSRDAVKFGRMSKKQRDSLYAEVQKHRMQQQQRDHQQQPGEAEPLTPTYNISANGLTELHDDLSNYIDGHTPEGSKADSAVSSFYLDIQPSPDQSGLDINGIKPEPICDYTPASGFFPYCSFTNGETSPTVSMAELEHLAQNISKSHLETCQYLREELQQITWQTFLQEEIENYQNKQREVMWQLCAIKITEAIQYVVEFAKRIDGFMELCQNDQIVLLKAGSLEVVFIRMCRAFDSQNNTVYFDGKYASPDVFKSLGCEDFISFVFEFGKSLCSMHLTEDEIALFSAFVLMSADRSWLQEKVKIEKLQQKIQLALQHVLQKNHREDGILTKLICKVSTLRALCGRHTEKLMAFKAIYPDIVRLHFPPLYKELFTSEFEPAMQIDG

[32] = Decrease in IL-6 gene expression in C57BL/6 mouse model of IL-23 induced acanthosis model of psoriasis at 5 mg/kg, po BID for 10 days by RT-PCR analysis; assay type: functional; conditions: C57BL/6, po, 240 h, time 10 day
[33] = Cmax in dog at 2 mg/kg, po; assay type: ADME, organism-based, Canis lupus familiaris; parameters: route oral, dose 2 mg/kg; conditions: in vivo
[34] = biological target: T2, Oxysterols receptor LXR-beta (Homo sapiens, UniProt P55055); experiment: Inhibition of LXRbeta (unknown origin)
T2 sequence (P55055 whole entry): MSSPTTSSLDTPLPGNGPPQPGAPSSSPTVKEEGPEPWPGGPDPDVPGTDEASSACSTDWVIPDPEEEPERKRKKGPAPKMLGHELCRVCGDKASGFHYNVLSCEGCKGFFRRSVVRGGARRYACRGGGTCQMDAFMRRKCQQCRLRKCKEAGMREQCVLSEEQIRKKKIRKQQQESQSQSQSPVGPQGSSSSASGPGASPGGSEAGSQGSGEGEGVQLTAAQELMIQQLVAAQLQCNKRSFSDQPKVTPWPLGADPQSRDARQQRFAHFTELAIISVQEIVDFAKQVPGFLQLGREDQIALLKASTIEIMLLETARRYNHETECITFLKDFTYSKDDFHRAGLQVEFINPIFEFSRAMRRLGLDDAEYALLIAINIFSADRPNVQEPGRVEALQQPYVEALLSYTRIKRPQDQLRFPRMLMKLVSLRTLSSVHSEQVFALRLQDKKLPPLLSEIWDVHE

[35] = Half life in Balb/c mouse at 2 mg/kg, iv; assay type: ADME, organism-based; conditions: in vivo

Cytochrome P450 3A4, sequence (P08684 whole entry): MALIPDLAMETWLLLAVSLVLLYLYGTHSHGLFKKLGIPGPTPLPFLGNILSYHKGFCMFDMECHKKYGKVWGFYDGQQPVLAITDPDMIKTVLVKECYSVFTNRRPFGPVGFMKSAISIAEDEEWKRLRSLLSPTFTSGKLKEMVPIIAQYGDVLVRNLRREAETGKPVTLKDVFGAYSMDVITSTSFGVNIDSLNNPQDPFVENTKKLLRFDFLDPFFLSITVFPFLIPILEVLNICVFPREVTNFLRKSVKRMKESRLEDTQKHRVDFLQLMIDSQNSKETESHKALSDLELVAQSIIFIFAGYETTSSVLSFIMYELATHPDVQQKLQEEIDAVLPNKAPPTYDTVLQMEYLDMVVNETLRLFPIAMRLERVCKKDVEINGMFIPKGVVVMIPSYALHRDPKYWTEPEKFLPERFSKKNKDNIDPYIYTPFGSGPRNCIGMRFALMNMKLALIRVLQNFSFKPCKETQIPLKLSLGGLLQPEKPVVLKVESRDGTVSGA

C[C@@](O)(CS(C)(=O)=O)C(=O)N[C@@H]1CC[C@@]2(S(=O)(=O)c3ccc(F)cc3)c3ccc(C(F)(C(F)(F)F)C(F)(F)F)nc3CC[C@@H]12
bioavailability [1]: 72%
Cmax [2]: 1600 nM
AUC [3]: 22.7 µM·h
Tmax [4]: 7 h
Activity [5]: 19 pg/mL
inhibition in vivo at 10 mg/kg [6]: 60%
Activity [7]: 34.4%
bioavailability [8]: 85%
inhibition in vivo at 10 mg/kg [9]: 85.3%
inhibition in vivo at 20 mg/kg [10]: 82.9%
Papp A→B [11]: 11 ×10⁻⁶ cm/s
inhibition in vivo at 10 mg/kg [12]: 82.3%
inhibition in vivo at 5 mg/kg [13]: 62.4%
inhibition in vivo at 10 mg/kg [14]: 64%
Tmax [15]: 4 h
inhibition in vivo at 10 mg/kg [16]: 73.8%
half-life [17]: 12 h
IC50 [18]: > 20 µM
AUC [19]: 13.2 µM·h
fraction unbound [20]: 0.015
fVdss [21]: 2.2 L/kg
AUC [22]: 45.9 µM·h
inhibition in vivo at 20 mg/kg [23]: 87.7%
Cmax [24]: 2800 nM
fVdss [25]: 2.7 L/kg
clearance [26]: 2.8 mL/min/kg
Cmax [27]: 600 nM
fVdss [28]: 2.5 L/kg
Activity [29]: Dose-dependent effect
AUC [30]: 163 µM·h
EC50 [31]: > 10 µM
inhibition in vivo at 5 mg/kg [32]: 55.8%
Cmax [33]: 1700 nM
EC50 [34]: > 10 µM
half-life [35]: 11 h
